Reference: patent publication US20060281174A1, “Methods for generating insulin-producing cells” (priority 2004, published 2006)

Test system: Human MSCs and Pancl cells
Test: Co-culture of human MSCs and Pancl cells in induction media with added factors to potentiate differentiation
Format: cell-based
Conditions: MSC/Pancl co-culture, induction media 1% ITS, 2% BSA in DMEM; 100 μM, 10 days
Method: Design: Human MSCs from Clontech (Palo Alto, CA), passage 4-6, and Pancl cells from ATCC, passage 2-6, were used in the experiment. 5 ×10ˆ5 cells for both cells were seeded in 10 cm tissue culture treated dishes in a 1:1 combination media of DMEM containing 10% FBS and a MSC growth media purchased from CAMBREX (Walkersville, MD). After 2-3 days of culture, the media was replaced by the induction media containing1% ITS, 2% BSA in DMEM. The proteasome inhibitor, Lactocystin, was added into the media at the final concentration of 100 μM to potentiate the differentiation for 10 days.
Design: Human MSCs from Clontech, passage 4-6, and Pancl cells from ATCC, passage 2-6, were used in the experiment. 5 ×10ˆ5 cells for both cells were seeded in 10 cm tissue culture treated dishes in a 1:1 media of DMEM containing 10% FBS, and a MSC growth media purchased from CAMBREX. After 2-3 days of culture, the media was replaced by the induction media containing 1% ITS, 2% BSA in DMEM for 10 days. A growth factor cocktail containing bFGF, EGF, Exendin-4 and Nicotinamide, was added into the media to potentiate the differentiation.
Design: Human MSCs from Clontech, passage 4-6, and Pancl cells from ATCC, passage 2-6, were used in the experiment. 5 ×10ˆ5 cells for both cells were seeded in 10 cm tissue culture treated dishes in a 1:1 media of DMEM with 10% FBS, and MSC growth media purchased from CAMBREX. […]

Compound: CC(=O)N[C@@H](CSC(=O)[C@]1([C@@H](O)C(C)C)NC(=O)[C@H](C)[C@@H]1O)C(=O)O [Lactocystin]
- expression of insulin: No formation of clusters or expression of insulin
- formation of clusters: No formation of clusters
